According to US20090317474A1, “USE OF POLYETHYLENE GLYCOL IN INFLAMMATION RELATED TOPICAL DISORDERS OR DISEASES AND WOUND HEALING” (Flen Pharma N.V., priority 2006, published 2009):

Tests used:
VEGF [1] = test: VEGF expression by fibroblasts (ELISA); format: cell-based, murine; conditions: overnight
IL-6 [2] = test: IL-6 expression by J774 macrophages after heat inactivated E. coli stimulation; format: cell-based, murine; conditions: J774 cells, with vs without PEG
Protocol: The cells were cultured with or without PEG (PEG600 diacid) The expression of IL-6 is lowered by about 30% when PEG is added.

proMMP-9 = proMMP-9 secretion by J774 macrophages challenged with heat inactivated E. coli; format: cell-based, murine
Protocol: Macrophage cells were pre-conditioned for 30 min. with varying concentrations of PEG400 (0.31-10% w/w) and then challenged with heat inactivated E. coli bacteria. Next, cells were further incubated overnight. The supernatant of cells was analyzed for proMMP-9 according to the manufacturer's indications (R&D systems, Abingdon, UK).

VEGF [3] = test: VEGF expression by fibroblast cells (3T3), comparison of humectants; format: cell-based, murine; conditions: 3T3 fibroblast cells
Source text: (§1) The expression of VEGF upon administration of PEG and/or other humectants was investigated on vascular endothelial cells (SVEC) and on fibroblast cells (3T3). The beneficial role of VEGF expression in the healing of ischemic wounds is described in Corrall et al. (1999) Arch. Surg. 134, 200-205.

Collagen type III = test: Collagen III expression by 3T3 fibroblast cells; format: cell-based, murine; conditions: 3T3 cells
Source text: This increase of collagen III expression was significant compared to control.

VEGF [4] = test: VEGF expression by vascular endothelial cells (SVEC); format: cell-based
Source text: as §1

VEGF [5] = test: VEGF expression in 3T3 cells incubated with hydrogel; format: cell-based, murine; conditions: Na+-Ca++ alginate gel with 2.5% PEG400 vs gel without PEG400, 16 h
Protocol: (§2) J774 macrophages were pre-conditioned for 30 min. with the gels and were then challenged with 100 ng/ml LPS. 3T3 cells were not challenged with bacteria. Next, the murine macrophage J774 and murine fibroblast 3T3 cells were incubated with the gels for 16 h at 37° C., 5% CO2. Hereafter, the medium was collected, centrifuged at 14,000 rpm during 20 min to remove particulate material and assayed for the indicated secreted proteins. Results are the mean of two independent experiments and are expressed as percentages of the control experiment.
(§3) A hydrogel was made by dissolving 2 g Kelset (Na^+—Ca^++ alginate) and 5 g PEG400 in a final volume of 100 ml growth medium [DMEM high glucose, 10% FCS, 4 mM L-Glutamine, antibiotics]. This mixture was further diluted with an additional 100 ml of growth medium to lower the viscosity of the solutions. The final concentration of PEG400 was 2.5%.
(§4) A similar solution without PEG400 was used as control.

J774 macrophages = test: Toxicity of PEG on cultivated cells (tetrazolium cell survival); format: cell-based, murine
Protocol: (§5) Cells were grown in DMEM (3T3 fibroblasts and HaCat keratinocytes) or in RPMI1640 (J774 macrophages). Both media were supplemented with heat inactivated 10% Fetal Calf Serum (Sigma), 2 mM L-Glutamine (Sigma) and antibiotics (Sigma). Cells were seeded subconfluent in 96 well plates and contacted for about 16 hours with PEG test compounds which were dissolved in growth media (expressed as w/w end concentrations).
(§6) Cell survival was assayed by the conversion of soluble tetrazolium salt into an insoluble and pink colored formazan (absorption measured at 570 nm).
(§7) Cells were incubated overnight with varying concentrations of PEG 400 (0.31-10% w/w). From 5% onwards, PEG has a cytotoxic effect on in vitro cultivated cells, especially on keratinocytes (FIG. 1A) and on macrophages (FIG. 1B), and to a lesser extent on fibroblasts (FIG. 1C).

3T3 fibroblasts = test: as above; format: cell-based, murine
Protocol: as §5, §6, §7

IL-6 [6] = test: IL-6 expression in 3T3 cells incubated with hydrogel; format: cell-based, murine; conditions: Na+-Ca++ alginate gel with 2.5% PEG400 vs gel without PEG400, 16 h
Protocol: as §2, §3, §4

IL-6 [7] = test: IL-6 secretion by LPS-challenged J774 macrophages incubated with hydrogels; format: cell-based, murine
Protocol: as §2, §3
(§8) A hydrogel was made by dissolving 1 g Carbopol (polyacrylate), 5 g PEG400, 2.1 g Arginine and 3 g PCL (cetearyl octanoate) in a total volume of 100 ml growth medium [DMEM(high glucose), 10% FCS, 4 mM L-Glutamine, antibiotics]. This mixture was further diluted with an additional 100 ml of growth medium to lower the viscosity of the solutions. Cultures of murine macrophages J774 were used. The final concentration of PEG400 in contact with the cells was 2.5%. A similar solution without PEG400 was used as control.
(§9) A hydrogel was made by dissolving 3 g CMC ([…]), and 5 g PEG400 in a final volume of 100 ml growth medium [DMEM(high glucose), 10% FCS/4 mM L-Glutamine, antibiotics]. This mixture was further diluted with an additional 100 ml of growth medium to lower the viscosity of the solutions. Cultures of murine macrophages J774 were used. The final concentration of PEG400 was 2.5%. A similar solution without PEG400 was used as control.

pro-MMP9 = pro-MMP9 secretion by LPS-challenged J774 macrophages incubated with hydrogels; format: cell-based, murine
Protocol: as §2, §3, §8, §9

HaCat keratinocytes = test: Toxicity of PEG on cultivated cells (tetrazolium cell survival); format: cell-based
Protocol: as §5, §6, §7

[8] = overnight incubation, PEG 400 0.31-10% w/w
[9] = J774, alginate gel, 2.5% PEG400, 100 ng/ml LPS
[10] = J774, carboxymethylcellulose gel, 2.5% PEG400, 100 ng/ml LPS
[11] = J774, polyacrylate (Carbopol) gel, 2.5% PEG400, LPS

PEG 600 diacid was tested, and the VEGF expression (VEGF [1]; 3T3 fibroblasts, increasing amounts 0.078-0.625% w/w) was “influenced”, the “lowering of IL-6 expression” value (IL-6 [2]) was “about 30%” and the pro-MMP9 expression (proMMP-9; J774 cells challenged with heat inactivated E. coli after 30 min pre-incubation) was “lowered”.
For Polyethylene glycol [PEG 400], the “PEG400 concentration of maximum VEGF expression” value (VEGF [1]; fibroblasts, 0.31-10% w/w tested) was 5%, the VEGF expression (VEGF [1]; fibroblasts, PEG400 concentrations between 2% and 10%) was “increases” and the “VEGF expression compared with 4% propylene glycol and 4% glycerol” value (VEGF [3]) was “highest expression”. For the same substance, the “collagen III expression compared with 4% propylene glycol and 4% glycerol” value (Collagen type III) was “highest expression”, the “increase of collagen III expression compared to control” value (Collagen type III; 4%) was “significant” and the “VEGF expression compared with 4% propylene glycol and 4% glycerol” value (VEGF [4]) was “highest expression”. For the same substance, the VEGF expression (VEGF [5]) was “slightly increased”, the “effect on cell survival” value (J774 macrophages; concentrations below 5%) was “no detrimental effect” and the “concentration from which PEG has a cytotoxic effect” value (J774 macrophages; [8]) was at least 5%. The “effect on cell survival” value (3T3 fibroblasts; concentrations below 5%) was “no detrimental effect”, the “concentration from which PEG has a cytotoxic effect” value (3T3 fibroblasts; [8]) was at least 5% and the IL-6 expression (IL-6 [6]) was “decreased”. For the same substance, the “secretion of IL-6” value (IL-6 [7]; [9]) was “reduced”, the “expression of IL-6” value (IL-6 [7]; [10]) was “clearly reduced” and the “expression of IL-6” value (IL-6 [7]; [11]) was “reduced”. The “secretion of pro-MMP9” value (pro-MMP9; [9]) was “reduced”, the “expression of pro-MMP9” value (pro-MMP9; [10]) was “less reduced” and the “expression of pro-MMP9” value (pro-MMP9; [11]) was “reduced”. The “effect on cell survival” value (HaCat keratinocytes; keratinocytes, concentrations below 5%) was “no detrimental effect”, the “concentration from which PEG has a cytotoxic effect” value (HaCat keratinocytes; keratinocytes, overnight incubation, PEG 400 0.31-10% w/w) was at least 5% and the “concentration from which PEG400 is cytotoxic (summary statement)” value (HaCat keratinocytes; summary of Example 1, cell type not specified) was ≥ 5 % (w/w). The “secretion of proMMP9” value (proMMP-9; J774, PEG 400 concentration from about up to roughly 1% (w/w), 30 min pre-conditioning, heat inactivated E. coli, overnight) was “significantly reduced”.
